Test results: patent US20040147739A1, “Novel anti-infectives” (priority 2003, published 2004)

Structure (SMILES) | melting point
CC(Br)CCn1c(=O)c(C2=Nc3ccccc3S(=O)(=O)N2)c(O)c2ccccc21 (centres unmarked) [Example 10, 1-(3-Bromobutyl)-3-(1,1-dioxo-1,2-dihydrobenzo[1,2,4]thiadiazin-3-yl)-4-hydroxy-1-1H-quinolin-2-one] | 190 to 194.5 °C (dec.)
O=c1c(C2=Nc3ccccc3S(=O)(=O)N2)c(O)c2ccccc2n1CC1CCCCC1 [Example 11, 1-Cyclohexylmethyl-3-(1,1-dioxo-1,2-dihydrobenzo[1,2,4]thiadiazin-3-yl)-4-hydroxy-1H-quinolin-2-one] | 232 to 235 °C

The remaining lines, values ahead:

melting point | Structure (SMILES)
249.1 to 251.1 °C | CC(C)=CCn1c(=O)c(C2=Nc3ccccc3S(=O)(=O)N2)c(O)c2ccccc21 [Example 12, 3-(1,1-Dioxo-1,2-dihydrobenzo[1,2,4]thiadiazin-3-yl)-4-hydroxy-1-(3-methylbut-2-eneyl)-1H-quinolin-2-one]
248.9 to 250 °C | O=c1c(C2=Nc3ccccc3S(=O)(=O)N2)c(O)c2ccccc2n1CCCC(F)(F)F [Example 18, 3-(1, l-Dioxo-1,2-dihydrobenzo[1,2,4]thiadiazin-3-yl)-4-hydroxy-1-(4,4,4-trifluorobutyl)-1H-quinolin-2-one]
238.4 to 239.6 °C | O=c1c(C2=Nc3ccccc3S(=O)(=O)N2)c(O)c2ccccc2n1CCCCO [Example 20, 3-(1,1-Dioxo-1,2-dihydrobenzo[1,2,4]thiadiazin-3-yl)-4-hydroxy-1-(4-hydroxybutyl)-1H-quinolin-2-one]
